Results: ChEMBL document CHEMBL2074249, “Fruit juices inhibit organic anion transporting polypeptide-mediated drug uptake to decrease the oral availability of fexofenadine” (Clin Pharmacol Ther, 2002)
Values belong to the compound of their own block, whether it stands above or below them.

How the values were obtained:
Type in all cases: functional, cell-based
[1] = target: T1, Oatp3 (Solute carrier organic anion transporter family member 1A5) (Rattus norvegicus, UniProt O88397); assay: TP_TRANSPORTER: inhibition of Fexofenadine uptake (Fexofenadine: 1? uM, 6',7'-Dihydroxybergamottin: 50 uM) in Oatp3-expressing HeLa cells; design: scale not given: the % may be the effect or the level left; settings: human, HeLa cells that express Oatp3, probe fexofenadine; read-out: Activity
T1 sequence (O88397 whole entry): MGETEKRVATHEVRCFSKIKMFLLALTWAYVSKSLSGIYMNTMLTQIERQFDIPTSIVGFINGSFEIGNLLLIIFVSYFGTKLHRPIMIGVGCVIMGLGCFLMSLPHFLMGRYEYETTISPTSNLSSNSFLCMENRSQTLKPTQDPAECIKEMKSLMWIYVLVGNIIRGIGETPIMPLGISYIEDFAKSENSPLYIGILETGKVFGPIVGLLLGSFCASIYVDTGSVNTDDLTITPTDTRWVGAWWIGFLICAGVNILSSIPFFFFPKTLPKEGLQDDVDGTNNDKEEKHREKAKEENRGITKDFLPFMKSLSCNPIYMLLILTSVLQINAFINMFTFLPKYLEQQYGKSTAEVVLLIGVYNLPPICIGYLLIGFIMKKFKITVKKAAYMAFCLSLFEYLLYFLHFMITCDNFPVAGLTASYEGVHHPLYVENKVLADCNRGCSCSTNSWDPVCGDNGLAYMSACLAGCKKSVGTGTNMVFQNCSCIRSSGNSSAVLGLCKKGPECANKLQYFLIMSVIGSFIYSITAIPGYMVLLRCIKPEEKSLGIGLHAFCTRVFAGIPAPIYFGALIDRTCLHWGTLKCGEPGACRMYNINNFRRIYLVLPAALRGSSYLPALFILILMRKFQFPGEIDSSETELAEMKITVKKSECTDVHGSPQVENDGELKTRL

[2] = target: T1, Oatp3 (Solute carrier organic anion transporter family member 1A5); assay: TP_TRANSPORTER: inhibition of Fexofenadine uptake (Fexofenadine: 1? uM, Bergamottin: 50 uM) in Oatp3-expressing HeLa cells; design: scale not given: the % may be the effect or the level left; settings: human, HeLa cells that express Oatp3, probe fexofenadine; read-out: Activity
[3] = target: T1, Oatp3 (Solute carrier organic anion transporter family member 1A5); assay: TP_TRANSPORTER: inhibition of Fexofenadine uptake (Fexofenadine: 1? uM, 5-Methoxypsoralen: 50 uM) in Oatp3-expressing HeLa cells; design: scale not given: the % may be the effect or the level left; settings: human, HeLa cells that express Oatp3, probe fexofenadine; read-out: Activity
[4] = target: T1, Oatp3 (Solute carrier organic anion transporter family member 1A5); assay: TP_TRANSPORTER: inhibition of Fexofenadine uptake (Fexofenadine: 1? uM, Hesperitin: 5 uM) in Oatp3-expressing HeLa cells; design: scale not given: the % may be the effect or the level left; settings: human, HeLa cells that express Oatp3, probe fexofenadine; read-out: Activity
[5] = target: T1, Oatp3 (Solute carrier organic anion transporter family member 1A5); assay: TP_TRANSPORTER: inhibition of Fexofenadine uptake (Fexofenadine: 1? uM, Hesperidin: 50 uM) in Oatp3-expressing HeLa cells; design: scale not given: the % may be the effect or the level left; settings: human, HeLa cells that express Oatp3, probe fexofenadine; read-out: Activity
[6] = target: T1, Oatp3 (Solute carrier organic anion transporter family member 1A5); assay: TP_TRANSPORTER: inhibition of Fexofenadine uptake (Fexofenadine: 1? uM, Naringenin: 50 uM) in Oatp3-expressing HeLa cells; design: scale not given: the % may be the effect or the level left; settings: human, HeLa cells that express Oatp3, probe fexofenadine; read-out: Activity
[7] = target: T1, Oatp3 (Solute carrier organic anion transporter family member 1A5); assay: TP_TRANSPORTER: inhibition of Fexofenadine uptake (Fexofenadine: 1? uM, Naringin: 5 uM) in Oatp3-expressing HeLa cells; design: scale not given: the % may be the effect or the level left; settings: human, HeLa cells that express Oatp3, probe fexofenadine; read-out: Activity
[8] = target: T1, Oatp3 (Solute carrier organic anion transporter family member 1A5); assay: TP_TRANSPORTER: inhibition of Fexofenadine uptake (Fexofenadine: 1? uM, Quercetin: 5 uM) in Oatp3-expressing HeLa cells; design: scale not given: the % may be the effect or the level left; settings: human, HeLa cells that express Oatp3, probe fexofenadine; read-out: Activity
[9] = target: T2, Solute carrier organic anion transporter family member 1A1 (Rattus norvegicus, UniProt P46720); assay: TP_TRANSPORTER: inhibition of Fexofenadine uptake (Fexofenadine: 1 uM, Apple juice: 5 %) in Oatp1-expressing HeLa cells; settings: human
T2 sequence (P46720 whole entry): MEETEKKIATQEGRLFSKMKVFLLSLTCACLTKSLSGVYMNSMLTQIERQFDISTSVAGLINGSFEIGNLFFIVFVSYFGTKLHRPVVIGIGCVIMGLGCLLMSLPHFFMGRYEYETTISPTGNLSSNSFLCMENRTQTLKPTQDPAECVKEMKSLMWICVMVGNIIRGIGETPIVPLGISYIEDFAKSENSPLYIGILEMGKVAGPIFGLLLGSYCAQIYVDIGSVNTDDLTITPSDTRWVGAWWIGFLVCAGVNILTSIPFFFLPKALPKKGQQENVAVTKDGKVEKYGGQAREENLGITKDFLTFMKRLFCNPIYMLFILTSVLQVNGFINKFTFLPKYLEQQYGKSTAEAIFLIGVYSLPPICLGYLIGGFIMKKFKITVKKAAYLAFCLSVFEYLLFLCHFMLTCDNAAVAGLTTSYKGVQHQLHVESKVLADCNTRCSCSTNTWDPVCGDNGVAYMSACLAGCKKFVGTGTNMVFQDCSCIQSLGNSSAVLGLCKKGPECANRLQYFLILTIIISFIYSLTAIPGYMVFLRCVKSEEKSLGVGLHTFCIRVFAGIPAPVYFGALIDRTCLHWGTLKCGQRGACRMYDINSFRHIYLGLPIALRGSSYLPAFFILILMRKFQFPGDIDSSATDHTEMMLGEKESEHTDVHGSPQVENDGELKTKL

[10] = target: T3, Solute carrier organic anion transporter family member 1A5 (Rattus norvegicus, UniProt O88397); assay: TP_TRANSPORTER: inhibition of Fexofenadine uptake (Fexofenadine: 1 uM, Apple juice: 5 %) in Oatp3-expressing HeLa cells; settings: human
T3 sequence (O88397 whole entry): T1 sequence (O88397 whole entry)

[11] = target: T2, Solute carrier organic anion transporter family member 1A1; assay: TP_TRANSPORTER: inhibition of Fexofenadine uptake (Fexofenadine: 1 uM, Grapefruit juice: 5 %) in Oatp1-expressing HeLa cells; settings: human
[12] = target: T4, Solute carrier organic anion transporter family member 1A2 (Homo sapiens, UniProt P46721); assay: TP_TRANSPORTER: inhibition of Fexofenadine uptake (Fexofenadine: 1 uM, Grapefruit juice: 5 %) in OATP-A-expressing HeLa cells
T4 sequence (P46721 whole entry): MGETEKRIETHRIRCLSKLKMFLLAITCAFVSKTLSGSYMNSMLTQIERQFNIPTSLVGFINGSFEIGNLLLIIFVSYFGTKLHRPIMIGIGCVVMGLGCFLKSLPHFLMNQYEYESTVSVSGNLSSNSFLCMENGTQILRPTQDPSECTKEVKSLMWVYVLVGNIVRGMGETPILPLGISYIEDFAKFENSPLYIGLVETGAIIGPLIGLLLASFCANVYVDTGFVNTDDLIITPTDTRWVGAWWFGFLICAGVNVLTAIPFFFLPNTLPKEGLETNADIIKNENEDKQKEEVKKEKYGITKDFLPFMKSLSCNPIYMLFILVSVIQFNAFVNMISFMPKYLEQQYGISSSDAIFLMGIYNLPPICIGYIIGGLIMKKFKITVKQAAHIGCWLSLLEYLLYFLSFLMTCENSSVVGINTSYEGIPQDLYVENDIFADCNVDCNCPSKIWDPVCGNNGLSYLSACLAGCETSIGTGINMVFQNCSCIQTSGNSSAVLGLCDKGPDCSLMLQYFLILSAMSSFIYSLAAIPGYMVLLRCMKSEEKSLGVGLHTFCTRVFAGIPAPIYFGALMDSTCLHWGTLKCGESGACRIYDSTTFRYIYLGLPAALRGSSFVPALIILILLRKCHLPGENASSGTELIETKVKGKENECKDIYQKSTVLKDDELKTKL

[13] = target: T5, Solute carrier organic anion transporter family member 1A4 (Rattus norvegicus, UniProt O35913); assay: TP_TRANSPORTER: inhibition of Fexofenadine uptake (Fexofenadine: 1 uM, Grapefruit juice: 5 %) in Oatp2-expressing HeLa cells; settings: human
T5 sequence (O35913 whole entry): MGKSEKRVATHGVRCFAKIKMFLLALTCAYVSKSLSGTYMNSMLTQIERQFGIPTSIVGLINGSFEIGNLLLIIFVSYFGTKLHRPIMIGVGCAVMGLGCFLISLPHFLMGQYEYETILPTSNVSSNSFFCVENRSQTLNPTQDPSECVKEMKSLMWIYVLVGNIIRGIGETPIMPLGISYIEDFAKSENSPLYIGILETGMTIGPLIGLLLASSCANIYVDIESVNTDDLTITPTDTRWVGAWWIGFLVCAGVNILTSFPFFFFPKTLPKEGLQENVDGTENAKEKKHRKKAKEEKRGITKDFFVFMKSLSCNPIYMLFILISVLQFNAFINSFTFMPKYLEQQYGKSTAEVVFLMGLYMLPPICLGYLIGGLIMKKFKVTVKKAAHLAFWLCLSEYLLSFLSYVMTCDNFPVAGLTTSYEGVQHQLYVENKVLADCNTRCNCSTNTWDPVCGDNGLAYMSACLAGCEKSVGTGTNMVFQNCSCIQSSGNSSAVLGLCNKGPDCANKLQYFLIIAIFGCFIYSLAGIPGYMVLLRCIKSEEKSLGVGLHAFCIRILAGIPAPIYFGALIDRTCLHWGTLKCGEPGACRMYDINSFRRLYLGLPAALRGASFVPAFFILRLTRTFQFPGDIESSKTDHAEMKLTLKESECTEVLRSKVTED

[14] = target: ATP-dependent translocase ABCB1 (Homo sapiens, UniProt P08183); assay: TP_TRANSPORTER: inhibition of Vinblastine transepithelial transport (basal to apical) (Vinblastine: 5 uM, Grapefruit juice: 5 %) in MDR1-expressing LLC-PK1 cells; settings: pig
[15] = target: T2, Solute carrier organic anion transporter family member 1A1; assay: TP_TRANSPORTER: inhibition of Fexofenadine uptake (Fexofenadine: 1 uM, Orange juice: 5 %) in Oatp1-expressing HeLa cells; settings: human
[16] = target: T3, Solute carrier organic anion transporter family member 1A5; assay: TP_TRANSPORTER: inhibition of Fexofenadine uptake (Fexofenadine: 1 uM, Orange juice: 5 %) in Oatp3-expressing HeLa cells; settings: human
[17] = target: T5, Solute carrier organic anion transporter family member 1A4; assay: TP_TRANSPORTER: inhibition of Fexofenadine uptake (Fexofenadine: 1 uM, Orange juice: 5 %) in Oatp2-expressing HeLa cells; settings: human
[18] = target: T4, Solute carrier organic anion transporter family member 1A2; assay: TP_TRANSPORTER: inhibition of Fexofenadine uptake (Fexofenadine: 1 uM, Orange juice: 5 %) in OATP-A-expressing HeLa cells

Sequence of ATP-dependent translocase ABCB1 (P08183 whole entry): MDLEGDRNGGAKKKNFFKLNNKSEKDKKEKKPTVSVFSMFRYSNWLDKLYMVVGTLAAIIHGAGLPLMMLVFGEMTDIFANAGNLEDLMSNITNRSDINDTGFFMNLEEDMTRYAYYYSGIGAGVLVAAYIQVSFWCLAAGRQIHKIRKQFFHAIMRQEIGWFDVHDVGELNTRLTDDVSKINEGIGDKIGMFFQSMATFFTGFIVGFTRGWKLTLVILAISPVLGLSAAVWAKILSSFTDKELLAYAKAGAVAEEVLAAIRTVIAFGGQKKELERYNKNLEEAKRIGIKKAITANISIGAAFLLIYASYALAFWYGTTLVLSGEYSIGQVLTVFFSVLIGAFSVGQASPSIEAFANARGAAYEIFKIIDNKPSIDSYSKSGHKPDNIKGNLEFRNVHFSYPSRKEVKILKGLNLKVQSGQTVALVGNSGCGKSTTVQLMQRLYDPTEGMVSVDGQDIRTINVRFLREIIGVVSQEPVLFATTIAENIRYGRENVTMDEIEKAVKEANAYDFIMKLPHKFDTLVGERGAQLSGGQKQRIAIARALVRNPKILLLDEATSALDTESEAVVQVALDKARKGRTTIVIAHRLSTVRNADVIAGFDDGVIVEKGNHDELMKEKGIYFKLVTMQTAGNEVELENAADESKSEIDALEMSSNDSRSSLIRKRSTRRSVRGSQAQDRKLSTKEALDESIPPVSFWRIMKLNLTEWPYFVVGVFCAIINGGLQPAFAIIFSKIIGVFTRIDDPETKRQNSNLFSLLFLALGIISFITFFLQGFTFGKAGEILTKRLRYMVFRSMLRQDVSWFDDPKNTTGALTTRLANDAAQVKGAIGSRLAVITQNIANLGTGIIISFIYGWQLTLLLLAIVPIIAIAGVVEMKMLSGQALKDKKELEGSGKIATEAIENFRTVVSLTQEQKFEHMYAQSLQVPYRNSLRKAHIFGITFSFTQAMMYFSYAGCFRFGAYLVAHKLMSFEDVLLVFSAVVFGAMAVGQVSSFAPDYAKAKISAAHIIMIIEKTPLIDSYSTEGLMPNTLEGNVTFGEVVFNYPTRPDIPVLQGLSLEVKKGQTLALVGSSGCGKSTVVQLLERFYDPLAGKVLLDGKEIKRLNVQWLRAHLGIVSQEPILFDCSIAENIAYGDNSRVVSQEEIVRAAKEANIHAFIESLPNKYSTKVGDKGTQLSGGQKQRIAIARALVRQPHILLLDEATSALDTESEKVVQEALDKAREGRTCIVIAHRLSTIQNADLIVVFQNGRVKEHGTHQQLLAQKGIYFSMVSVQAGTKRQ

Compound: COc1c2ccoc2cc2oc(=O)ccc12 [BERGAPTEN]
activity at 50 µM [3]: 32%

Compound: COc1ccc([C@@H]2CC(=O)c3c(O)cc(O)cc3O2)cc1O [HESPERETIN]
activity at 5 µM [4]: 40%

Compound: O=C1C[C@@H](c2ccc(O)cc2)Oc2cc(O)cc(O)c21 [NARINGENIN]
activity at 50 µM [6]: 10%

Compound: O=c1c(O)c(-c2ccc(O)c(O)c2)oc2cc(O)cc(O)c12 [QUERCETIN]
activity at 5 µM [8]: 52%

Compound: APPLE JUICE
Activity [9]: inhibitor [(at a rough estimate) 5 % of control]
Activity [10]: inhibitor [(at a rough estimate) 5 % of control]

Compound: GRAPEFRUIT JUICE
Activity [11]: inhibitor [(at a rough estimate) <0 % of control]
Activity [12]: inhibitor [(at a rough estimate) 10 % of control]
Activity [13]: inhibitor [(at a rough estimate) 20 % of control]
Activity [14]: is not an inhibitor [-]

Compound: ORANGE JUICE
Activity [15]: inhibitor [(at a rough estimate) 25 % of control]
Activity [16]: inhibitor [(at a rough estimate) 10 % of control]
Activity [17]: inhibitor [(at a rough estimate) <5 % of control]
Activity [18]: inhibitor [(at a rough estimate) 10 % of control]

Next, values leading:

activity at 50 µM [1]: 22%
Compound: C/C(=C\COc1c2ccoc2cc2oc(=O)ccc12)CC[C@@H](O)C(C)(C)O

activity at 50 µM [2]: 22%
Compound: CC(C)=CCC/C(C)=C/COc1c2ccoc2cc2oc(=O)ccc12 [BERGAMOTTIN]

activity at 50 µM [5]: 51%
Compound: COc1ccc([C@@H]2CC(=O)c3c(O)cc(O[C@@H]4O[C@H](CO[C@@H]5O[C@@H](C)[C@H](O)[C@@H](O)[C@H]5O)[C@@H](O)[C@H](O)[C@H]4O)cc3O2)cc1O [HESPERIDIN]

activity at 5 µM [7]: 36%
Compound: C[C@@H]1O[C@@H](O[C@H]2[C@H](Oc3cc(O)c4c(c3)O[C@H](c3ccc(O)cc3)CC4=O)O[C@H](CO)[C@@H](O)[C@@H]2O)[C@H](O)[C@H](O)[C@H]1O [NARINGIN]
